27 compounds from ChEMBL document CHEMBL4028801, “A multifactorial approach to hepatobiliary transporter assessment enables improved therapeutic compound development” (Toxicol Sci, 2013) can be followed below.

The target in assay [1] is T1, ATP-binding cassette sub-family C member 4 (Homo sapiens, UniProt O15439).
T1 sequence (O15439 whole entry): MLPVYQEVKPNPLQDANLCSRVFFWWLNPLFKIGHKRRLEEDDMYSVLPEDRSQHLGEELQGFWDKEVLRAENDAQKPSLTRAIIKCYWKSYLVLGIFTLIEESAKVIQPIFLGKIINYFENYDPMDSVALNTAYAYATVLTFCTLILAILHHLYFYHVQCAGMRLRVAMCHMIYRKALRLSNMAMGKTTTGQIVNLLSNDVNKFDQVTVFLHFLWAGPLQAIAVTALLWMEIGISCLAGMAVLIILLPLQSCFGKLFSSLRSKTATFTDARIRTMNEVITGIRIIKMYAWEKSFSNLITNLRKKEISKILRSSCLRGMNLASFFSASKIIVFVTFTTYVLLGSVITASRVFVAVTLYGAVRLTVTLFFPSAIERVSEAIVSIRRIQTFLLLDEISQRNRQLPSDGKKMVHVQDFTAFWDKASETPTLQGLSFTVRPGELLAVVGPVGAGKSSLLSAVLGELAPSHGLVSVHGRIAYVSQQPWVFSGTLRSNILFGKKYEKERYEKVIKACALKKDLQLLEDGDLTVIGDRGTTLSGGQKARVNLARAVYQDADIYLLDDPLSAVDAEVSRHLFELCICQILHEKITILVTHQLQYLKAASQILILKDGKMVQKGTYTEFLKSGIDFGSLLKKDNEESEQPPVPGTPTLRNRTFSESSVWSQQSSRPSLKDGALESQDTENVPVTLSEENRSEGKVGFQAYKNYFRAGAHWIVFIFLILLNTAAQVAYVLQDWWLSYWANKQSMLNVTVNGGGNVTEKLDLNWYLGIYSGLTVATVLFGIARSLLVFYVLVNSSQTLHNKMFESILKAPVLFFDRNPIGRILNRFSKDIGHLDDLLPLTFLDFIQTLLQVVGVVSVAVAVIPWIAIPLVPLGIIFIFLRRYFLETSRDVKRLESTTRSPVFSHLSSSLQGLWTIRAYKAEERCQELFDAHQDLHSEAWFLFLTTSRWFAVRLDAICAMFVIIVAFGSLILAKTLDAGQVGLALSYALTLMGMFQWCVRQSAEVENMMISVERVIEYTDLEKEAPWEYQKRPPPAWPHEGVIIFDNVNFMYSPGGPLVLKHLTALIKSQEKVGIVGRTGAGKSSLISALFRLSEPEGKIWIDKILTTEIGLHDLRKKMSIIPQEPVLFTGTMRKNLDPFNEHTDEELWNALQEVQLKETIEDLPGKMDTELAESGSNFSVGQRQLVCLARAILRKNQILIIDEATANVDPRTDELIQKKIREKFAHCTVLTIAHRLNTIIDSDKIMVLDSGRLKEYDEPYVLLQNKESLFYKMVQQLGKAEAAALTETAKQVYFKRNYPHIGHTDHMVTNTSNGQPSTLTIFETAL
In words: Inhibition of human MRP4 overexpressed in Sf9 cell membrane vesicles assessed as uptake of [3H]-estradiol-17beta-D-glucuronide in presence of ATP and GSH measured after 20 mins by membrane vesicle transport assay. It counts as ADME, cell-based.

The target of assay [2] is ATP-binding cassette sub-family C member 2 (Homo sapiens, UniProt Q92887). In words: Inhibition of human MRP2 overexpressed in Sf9 cell membrane vesicles assessed as uptake of [3H]-estradiol-17beta-D-glucuronide in presence of ATP and GSH measured after 20 mins by membrane vesicle transport assay.
Chain of ATP-binding cassette sub-family C member 2 (Q92887 whole entry): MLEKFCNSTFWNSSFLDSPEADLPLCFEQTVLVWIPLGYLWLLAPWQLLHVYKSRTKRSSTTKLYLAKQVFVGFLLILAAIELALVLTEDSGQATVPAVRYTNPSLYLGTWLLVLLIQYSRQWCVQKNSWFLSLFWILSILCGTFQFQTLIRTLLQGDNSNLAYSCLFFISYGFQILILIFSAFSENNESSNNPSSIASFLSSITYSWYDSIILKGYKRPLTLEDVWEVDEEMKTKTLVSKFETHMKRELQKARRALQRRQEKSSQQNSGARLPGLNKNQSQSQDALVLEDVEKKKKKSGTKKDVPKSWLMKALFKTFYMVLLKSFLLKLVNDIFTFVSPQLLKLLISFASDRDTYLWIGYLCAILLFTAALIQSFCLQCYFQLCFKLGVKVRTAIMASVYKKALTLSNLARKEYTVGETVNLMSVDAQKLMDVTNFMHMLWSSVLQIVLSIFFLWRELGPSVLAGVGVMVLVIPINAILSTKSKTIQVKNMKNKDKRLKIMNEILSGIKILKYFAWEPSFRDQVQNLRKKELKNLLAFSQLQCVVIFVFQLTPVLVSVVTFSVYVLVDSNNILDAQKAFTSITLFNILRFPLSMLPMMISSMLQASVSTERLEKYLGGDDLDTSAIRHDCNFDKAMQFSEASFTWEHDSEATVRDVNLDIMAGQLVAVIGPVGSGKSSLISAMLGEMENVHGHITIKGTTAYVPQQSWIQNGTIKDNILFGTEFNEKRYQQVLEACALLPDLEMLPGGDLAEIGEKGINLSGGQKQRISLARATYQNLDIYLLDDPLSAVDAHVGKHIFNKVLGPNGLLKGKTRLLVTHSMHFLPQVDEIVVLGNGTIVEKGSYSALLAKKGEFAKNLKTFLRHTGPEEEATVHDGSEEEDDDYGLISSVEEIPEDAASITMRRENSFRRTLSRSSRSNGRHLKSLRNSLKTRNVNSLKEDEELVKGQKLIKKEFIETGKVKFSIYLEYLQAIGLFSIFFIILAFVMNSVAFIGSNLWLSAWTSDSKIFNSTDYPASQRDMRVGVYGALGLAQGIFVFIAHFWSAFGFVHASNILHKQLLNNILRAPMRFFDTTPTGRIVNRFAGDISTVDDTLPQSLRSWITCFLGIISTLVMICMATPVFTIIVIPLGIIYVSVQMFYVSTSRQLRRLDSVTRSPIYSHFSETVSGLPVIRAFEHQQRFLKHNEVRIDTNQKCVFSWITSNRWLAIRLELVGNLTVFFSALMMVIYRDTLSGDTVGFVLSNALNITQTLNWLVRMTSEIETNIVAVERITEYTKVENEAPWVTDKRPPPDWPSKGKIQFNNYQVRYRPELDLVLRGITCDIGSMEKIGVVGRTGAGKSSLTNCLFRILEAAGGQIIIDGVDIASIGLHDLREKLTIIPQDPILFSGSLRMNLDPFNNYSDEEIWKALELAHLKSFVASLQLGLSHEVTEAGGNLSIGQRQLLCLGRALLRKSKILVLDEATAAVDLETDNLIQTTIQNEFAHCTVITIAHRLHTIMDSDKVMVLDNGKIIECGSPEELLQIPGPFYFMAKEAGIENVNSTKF
In assay [3] the target is ATP-binding cassette sub-family C member 3 (Homo sapiens, UniProt O15438). In words: Inhibition of human MRP3 overexpressed in Sf9 insect cell membrane vesicles assessed as uptake of [3H]-estradiol-17beta-D-glucuronide in presence of ATP and GSH measured after 10 mins by membrane vesicle transport assay. The assay is classed as ADME, cell-based.
Chain of ATP-binding cassette sub-family C member 3 (O15438 whole entry): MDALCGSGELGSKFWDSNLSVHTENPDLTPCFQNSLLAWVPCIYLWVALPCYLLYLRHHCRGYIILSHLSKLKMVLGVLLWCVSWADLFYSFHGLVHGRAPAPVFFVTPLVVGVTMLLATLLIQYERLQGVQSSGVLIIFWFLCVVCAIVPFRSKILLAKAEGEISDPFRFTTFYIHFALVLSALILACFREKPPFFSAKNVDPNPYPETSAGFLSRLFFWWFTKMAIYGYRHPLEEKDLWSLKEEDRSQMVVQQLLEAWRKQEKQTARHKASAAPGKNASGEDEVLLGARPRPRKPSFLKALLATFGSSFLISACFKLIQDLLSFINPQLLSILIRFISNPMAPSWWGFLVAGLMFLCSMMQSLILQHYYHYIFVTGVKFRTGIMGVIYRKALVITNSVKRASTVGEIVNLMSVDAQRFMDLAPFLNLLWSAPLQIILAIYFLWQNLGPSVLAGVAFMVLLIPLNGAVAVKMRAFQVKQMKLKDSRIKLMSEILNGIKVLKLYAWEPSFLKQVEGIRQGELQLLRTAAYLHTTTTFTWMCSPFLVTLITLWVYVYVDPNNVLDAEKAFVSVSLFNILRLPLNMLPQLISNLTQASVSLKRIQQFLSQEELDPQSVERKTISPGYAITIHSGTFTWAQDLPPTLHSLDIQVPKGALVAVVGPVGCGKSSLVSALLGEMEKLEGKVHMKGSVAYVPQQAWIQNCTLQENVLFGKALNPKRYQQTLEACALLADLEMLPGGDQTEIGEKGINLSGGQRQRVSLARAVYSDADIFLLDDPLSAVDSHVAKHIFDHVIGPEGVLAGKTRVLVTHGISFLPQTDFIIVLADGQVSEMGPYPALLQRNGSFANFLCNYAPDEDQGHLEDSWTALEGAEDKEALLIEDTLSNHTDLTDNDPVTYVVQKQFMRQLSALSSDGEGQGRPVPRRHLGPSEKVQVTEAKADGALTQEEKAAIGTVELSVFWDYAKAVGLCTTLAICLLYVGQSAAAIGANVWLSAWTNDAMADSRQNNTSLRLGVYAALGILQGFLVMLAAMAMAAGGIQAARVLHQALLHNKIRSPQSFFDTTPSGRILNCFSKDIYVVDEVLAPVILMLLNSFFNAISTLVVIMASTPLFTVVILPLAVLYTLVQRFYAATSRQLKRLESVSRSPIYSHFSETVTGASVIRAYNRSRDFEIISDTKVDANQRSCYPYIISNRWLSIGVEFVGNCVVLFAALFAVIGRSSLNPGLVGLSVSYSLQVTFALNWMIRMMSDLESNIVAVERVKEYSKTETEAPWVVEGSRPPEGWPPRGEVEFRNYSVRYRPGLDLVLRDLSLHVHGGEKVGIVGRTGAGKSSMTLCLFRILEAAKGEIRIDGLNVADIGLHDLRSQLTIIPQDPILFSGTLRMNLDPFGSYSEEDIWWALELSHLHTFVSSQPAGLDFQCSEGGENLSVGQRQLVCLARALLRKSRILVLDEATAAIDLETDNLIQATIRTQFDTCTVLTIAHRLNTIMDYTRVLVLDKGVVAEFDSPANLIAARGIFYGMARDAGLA
The target of the next assay is Bile salt export pump (Homo sapiens, UniProt O95342). Description: Inhibition of human BSEP overexpressed in Sf9 cell membrane vesicles assessed as uptake of [3H]-taurocholate in presence of ATP measured after 15 to 20 mins by membrane vesicle transport assay. It counts as ADME, cell-based.
Chain of Bile salt export pump (O95342 whole entry): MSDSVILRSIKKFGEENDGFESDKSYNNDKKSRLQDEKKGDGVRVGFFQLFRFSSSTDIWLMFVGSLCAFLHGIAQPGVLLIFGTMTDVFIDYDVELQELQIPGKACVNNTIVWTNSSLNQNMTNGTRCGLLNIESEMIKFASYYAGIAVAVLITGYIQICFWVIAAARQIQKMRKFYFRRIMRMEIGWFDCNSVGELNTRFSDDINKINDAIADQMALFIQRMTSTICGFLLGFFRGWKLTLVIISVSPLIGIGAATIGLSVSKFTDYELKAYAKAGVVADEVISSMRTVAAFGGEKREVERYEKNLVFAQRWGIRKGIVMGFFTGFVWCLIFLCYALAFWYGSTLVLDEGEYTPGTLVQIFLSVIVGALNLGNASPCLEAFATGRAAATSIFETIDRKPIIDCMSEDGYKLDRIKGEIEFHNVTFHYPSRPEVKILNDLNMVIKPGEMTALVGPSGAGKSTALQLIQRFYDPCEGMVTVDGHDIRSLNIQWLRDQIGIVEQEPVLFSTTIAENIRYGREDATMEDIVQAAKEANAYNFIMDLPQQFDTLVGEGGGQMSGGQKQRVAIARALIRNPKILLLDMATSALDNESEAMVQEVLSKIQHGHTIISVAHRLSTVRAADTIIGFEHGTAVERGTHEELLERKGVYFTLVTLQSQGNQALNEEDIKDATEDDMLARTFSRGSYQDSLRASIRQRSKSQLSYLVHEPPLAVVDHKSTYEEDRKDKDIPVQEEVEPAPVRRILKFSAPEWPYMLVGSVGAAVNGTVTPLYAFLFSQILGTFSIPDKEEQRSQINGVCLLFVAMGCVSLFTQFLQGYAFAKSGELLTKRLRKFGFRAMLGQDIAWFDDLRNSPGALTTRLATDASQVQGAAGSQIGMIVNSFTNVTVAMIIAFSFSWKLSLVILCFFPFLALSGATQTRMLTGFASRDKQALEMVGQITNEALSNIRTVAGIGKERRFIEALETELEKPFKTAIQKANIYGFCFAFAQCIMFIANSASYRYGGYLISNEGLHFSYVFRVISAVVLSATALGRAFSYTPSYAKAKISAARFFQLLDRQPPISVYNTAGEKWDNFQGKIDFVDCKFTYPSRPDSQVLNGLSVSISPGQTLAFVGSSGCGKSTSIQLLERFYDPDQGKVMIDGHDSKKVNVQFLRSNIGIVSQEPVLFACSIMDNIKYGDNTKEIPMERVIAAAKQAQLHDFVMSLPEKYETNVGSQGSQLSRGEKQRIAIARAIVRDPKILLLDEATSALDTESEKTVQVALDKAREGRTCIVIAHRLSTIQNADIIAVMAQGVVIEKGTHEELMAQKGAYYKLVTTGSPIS

The structures appear in SMILES notation. Counter-ions that a name gives are not always drawn. Positions of bridges follow the written chain, without caps; N, C: chain ends. Non-standard residues stand in square brackets, D forms with d. Residues, ends and D or L forms follow the SMILES beside them. Orn = NCCC[C@H](N)C(=O)O; Mpa = O=C(O)CCS

For orientation: IC50 means the concentration needed to halve the response being measured.

With `Nc1nc2c(ncn2COCCO)c(=O)[nH]1` [ACYCLOVIR], the IC50 (in assay [1]; in assay [2]; in assay [3]; at Bile salt export pump) was above 133 µM in each case.

As for `CS(=O)(=O)N1CCN(Cc2cc3nc(-c4cccc5[nH]ncc45)nc(N4CCOCC4)c3s2)CC1`, the IC50 in assay [1] was 2.7 µM; in assay [2] it was above 133 µM; in assay [3], above 133 µM; on Bile salt export pump it was 15.2 µM.

Take `Nc1nc(N)c2nc(-c3ccccc3)c(N)nc2n1`: the IC50 (in assay [1]; in assay [2]; in assay [3]; at Bile salt export pump) was above 133 µM throughout.

Turning to `CN1CCC[C@H]1c1cccnc1` [NICOTINE], the IC50 (in assay [1]; in assay [2]; in assay [3]; at Bile salt export pump) was above 133 µM each time.

As for `CC(C)(C)NC[C@H](O)COc1nsnc1N1CCOCC1` [TIMOLOL], the half-inhibitory concentration (IC50) (in assay [1]; in assay [2]; in assay [3]; on Bile salt export pump) was above 133 µM each time.

Consider `O=C(O[C@@H]1C[C@@H]2C[C@H]3C[C@H](C1)N2CC3=O)c1c[nH]c2ccccc12`, for which the concentration for half-maximal inhibition (IC50) (in assay [1]; in assay [2]; in assay [3]; at Bile salt export pump) was above 133 µM each time.

As to `CO/N=C1\CN(c2nc3c(cc2F)c(=O)c(C(=O)O)cn3C2CC2)CC1CN` (stereo not drawn) [GEMIFLOXACIN MESYLATE], the IC50 is 73.2 µM in assay [1], above 133 µM in assay [2], above 133 µM in assay [3] and above 133 µM at Bile salt export pump.

Turning to `COc1c(N2CCNC(C)C2)c(F)cc2c(=O)c(C(=O)O)cn(C3CC3)c12` (stereo not drawn) [GATIFLOXACIN], the IC50 (in assay [1]; in assay [2]; in assay [3]; at Bile salt export pump) was above 133 µM in each case.

Regarding `CO[C@H]1/C=C/O[C@@]2(C)Oc3c(C)c(O)c4c(O)c(c5c(nc6cc(C)ccn65)c4c3C2=O)NC(=O)/C(C)=C\C=C\[C@H](C)[C@H](O)[C@@H](C)[C@@H](O)[C@@H](C)[C@H](OC(C)=O)[C@@H]1C` [RIFAXIMIN], the IC50 in assay [1] worked out at 30.2 µM; in assay [2] it was 15.4 µM; in assay [3] it was 65 µM; on Bile salt export pump, 42 µM.

For `O=C1CN=C(c2ccccc2)c2cc([N+](=O)[O-])ccc2N1` [NITRAZEPAM], the IC50 (in assay [1]; in assay [2]; in assay [3]; at Bile salt export pump) was above 133 µM each time.

With `CN(C/C=C/C#CC(C)(C)C)Cc1cccc2ccccc12` [TERBINAFINE HYDROCHLORIDE], the IC50 (in assay [1]; in assay [2]; in assay [3]; at Bile salt export pump) was above 133 µM each time.

In the case of `CC(C)[C@H]1CC[C@H](C(=O)N[C@H](Cc2ccccc2)C(=O)O)CC1` [NATEGLINIDE], the half-maximal inhibitory concentration (IC50) in assay [1] was above 133 µM; in assay [2] it was above 133 µM; in assay [3], 104 µM; on Bile salt export pump, above 133 µM.

Take `Nc1ccn([C@H]2CC[C@@H](CO)O2)c(=O)n1` [ZALCITABINE]: the IC50 (in assay [1]; in assay [2]; in assay [3]; on Bile salt export pump) was above 133 µM throughout.

In the case of `C=CC(N)CCC(=O)O` (stereo not drawn) [VIGABATRIN], the half-inhibitory concentration (IC50) (in assay [1]; in assay [2]; in assay [3]; at Bile salt export pump) was above 133 µM each time.

`O=C1Cc2cc(CCN3CCN(c4nsc5ccccc45)CC3)c(Cl)cc2N1` [ZIPRASIDONE MESYLATE]: the IC50 (in assay [1]; in assay [2]; in assay [3]; on Bile salt export pump) was above 133 µM throughout.

For the compound `OCC(CO)N[C@H]1C[C@](O)(CO)[C@@H](O)[C@H](O)[C@H]1O` [VOGLIBOSE], the 50% inhibitory concentration (IC50) (in assay [1]; in assay [2]; in assay [3]; on Bile salt export pump) was above 133 µM throughout.

As to `NNC(=O)c1ccncc1` [ISONIAZID], the IC50 (in assay [1]; in assay [2]; in assay [3]; on Bile salt export pump) was above 133 µM throughout.

For the compound `CC[C@H]1OC(=O)[C@H](C)[C@@H](O[C@H]2C[C@@](C)(OC)[C@@H](O)[C@H](C)O2)[C@H](C)[C@@H](O[C@@H]2O[C@H](C)C[C@H](N(C)C)[C@H]2O)[C@](C)(O)C[C@@H](C)/C(=N\OCOCCOC)[C@H](C)[C@@H](O)[C@]1(C)O` [ROXITHROMYCIN], the IC50 (in assay [1]; in assay [2]; in assay [3]; on Bile salt export pump) was above 133 µM in each case.

In the case of `C#CCN(C)[C@H](C)Cc1ccccc1` [SELEGILINE HYDROCHLORIDE], the IC50 (in assay [1]; in assay [2]; in assay [3]; at Bile salt export pump) was above 133 µM throughout.

As for `CCOC(=O)C1=C[C@@H](OC(CC)CC)[C@H](NC(C)=O)[C@@H](N)C1` [OSELTAMIVIR PHOSPHATE], the concentration for half-maximal inhibition (IC50) (in assay [1]; in assay [2]; in assay [3]; at Bile salt export pump) was above 133 µM each time.

On to `CCOc1ccc(C[C@H]2NC(=O)CCSSC[C@@H](C(=O)N3CCC[C@H]3C(=O)N[C@@H](CCCN)C(=O)NCC(N)=O)NC(=O)[C@H](CC(N)=O)NC(=O)[C@H]([C@@H](C)O)NC(=O)[C@H]([C@@H](C)CC)NC2=O)cc1` [ATOSIBAN] ([Mpa][dY](Et)ITNCP[Orn]G-NH2; disulfide 1-6), for which the IC50 (in assay [1]; in assay [2]; in assay [3]; on Bile salt export pump) was above 133 µM in each case.

For the compound `C[C@H]1[C@H](OC(=O)CCC(=O)O)O[C@@H]2O[C@@]3(C)CC[C@H]4[C@H](C)CC[C@@H]1[C@@]24OO3` [ARTESUNATE], the IC50 (in assay [1]; in assay [2]; in assay [3]; on Bile salt export pump) was above 133 µM in each case.

Regarding `O=C(O)P(=O)(O)O` [FOSCARNET SODIUM], the half-maximal inhibitory concentration (IC50) (in assay [1]; in assay [2]; in assay [3]; at Bile salt export pump) was above 133 µM each time.

Turning to `NCCCC(N)(C(=O)O)C(F)F` (stereo not drawn) [EFLORNITHINE HYDROCHLORIDE], the IC50 (in assay [1]; in assay [2]; in assay [3]; on Bile salt export pump) was above 133 µM throughout.

Consider `Cn1c(=O)c2[nH]cnc2n(C)c1=O` [AMINOPHYLLINE], for which the IC50 is 131 µM in assay [1], above 133 µM in assay [2], above 133 µM in assay [3] and above 133 µM at Bile salt export pump.

With `COc1cc([C@@H]2c3cc4c(cc3[C@@H](O[C@@H]3O[C@@H]5CO[C@@H](C)O[C@H]5[C@H](O)[C@H]3O)[C@H]3COC(=O)[C@H]23)OCO4)cc(OC)c1OP(=O)(O)O` [ETOPOSIDE PHOSPHATE], the IC50 (in assay [1]; in assay [2]; in assay [3]; at Bile salt export pump) was above 133 µM in each case.

For the compound `CO[C@H]1O[C@@H]2O[C@@]3(C)CC[C@H]4[C@H](C)CC[C@@H]([C@H]1C)[C@@]24OO3`, the IC50 (in assay [1]; in assay [2]; in assay [3]; at Bile salt export pump) was above 133 µM throughout.
